Assay results: article PMC11993615, “Design, synthesis and optimization of TarO inhibitors as multifunctional antibiotics against Methicillin-resistant Staphylococcus aureus” (npj Antimicrobials and Resistance, 2025)

Assays:
USA400 MW2 [1] = assay: MIC determination, broth microdilution; details: Staphylococcus aureus
[2] = Cytotoxicity assay (Sulforhodamine B); type: cell-based; details: human
Experimental: The cytotoxicity was detected by Sulforhodamine B method. The human pancreatic cancer cell line Capan-1, human colon cancer cell line HCT-116 and human lung adenocarcinoma cell line NCI-H1373 were purchased from American Type Culture Collection (ATCC; Manassas, VA) and inoculated into 96-well plates in triplicate. The cells were treated with different concentrations of compounds in humidified incubator containing 5% CO2 for 72 h when they reached 70%-80% confluence. Vincristine was added as a positive control. Then, SRB staining agent was added and microplate analyzer was used to read the absorbance at 450 nm wavelength. The cytotoxicity of each compound is expressed as the concentration of the compound that reduces cell viability to 50% (IC50). The optical density (OD) at a wavelength of 450 nm was measured using an SpectraMax 190 Microplate Reader (Molecular Devices; USA). The IC50 value was calculated by the Logit method using Graphpad Prism 9.1.

HS663 [3] = assay: MIC determination, broth microdilution; details: Staphylococcus aureus
USA400 MW2 [4] = assay: Checkerboard MIC assay with oxacillin; type: cell-based, Staphylococcus aureus; details: for FICI / Sensitization fold / Maximum sensitization concentration / Minimum sensitization concentration: USA400 MW2/oxacillin; for Maximum sensitization concentration / Minimum sensitization concentration: test range 0.03–32 μg/mL; for MIC of β-lactam, combined: USA400 MW2
Experimental: (§1) In the checkerboard assay, concentrations of antibiotics, oxacillin and imipenem, and TarO inhibitors were simultaneously varied across columns and the rows, respectively. […] The range of each compound chosen for the checkerboard assay was according to their MIC value. […] For each clear well observed on the checkerboard MIC plate, the fractional inhibitory concentration index (FICI) was calculated as follows: FICI = FIC (inhibitor) + FIC (antibiotic) = MIC inhibitor in combination/ MIC inhibitor alone + MIC antibiotic in combination/MIC antibiotic alone. FIC = Fractional Inhibitory Concentration. A FICI value of < 0.5 indicates synergy, a value between 0.5 and 2 indicates additivity or indifference, and a value > 2 indicates antagonism.

USA300 LAC [5] = assay: Checkerboard MIC assay with oxacillin; type: cell-based, Staphylococcus aureus; details: USA300 LAC/oxacillin; for Minimum sensitization concentration: test range 0.03–32 μg/mL
Experimental: as §1

[6] = Preliminary liver microsomal stability testing; type: in vitro ADME, Mouse; details: for Clint In Vitro / Comments (metabolic stability): Mouse liver microsomes; for half-life at 0.1 μM: pH 7.4, Mouse liver microsomes 0.33 mg/mL, 0.1 μM compound
Experimental: 6. Supplementary Ta b l e 3: Preliminary liver microsomal stability testing of Ta r O
Compounds Species T1/2 Clint In Vitro MF […]
a MF: metabolic bioavailability.
Microsomes in 0.1 M TRIS buffer pH 7.4 (final concentration 0.33 mg/mL), co- factor MgCl2 (final concentration 5 mM) and tested compound (final concentration 0.1 μM, co-solvent 0.01% DMSO and 0.005% Bovin serum albumin BSA) were incubated at 37°C for 10 min. The reaction was started by the addition of NADPH (final concentration 1 mM). Aliquots were sampled at 0, 5, 15, 30 and 60 min respectively and methanol (cold in wet ice) was added to terminate the reaction.
After centrifugation (4000rpm,5 min), samples were then analyzed by LC- MS/MS.

[7] = test system: S.aureus USA300 LAC biofilm; assay: Static biofilm inhibition assay (crystal violet); type: cell-based, Staphylococcus aureus
USA300 LAC [8] = assay: MIC determination, broth microdilution; details: Staphylococcus aureus
TarO = TarO (Staphylococcus aureus, UniProt Q2G060); type: cell-based; details: for IC50: relative inhibition rate against the wild-type strain, OD600 at 20 h, n.a. = IC50 cannot be calculated within the test range
HS663 [9] = assay: Checkerboard MIC assay with imipenem; type: cell-based, Staphylococcus aureus; details: for FICI / Sensitization fold / Maximum sensitization concentration / Minimum sensitization concentration: HS663/imipenem; for Maximum sensitization concentration / Minimum sensitization concentration: test range 0.03–32 μg/mL; for MIC of β-lactam, combined: HS663
Experimental: as §1

[10] = Solubility of compounds in water (HPLC); type: physicochemical; details: pure water
Experimental: Weigh the sample in a 10 mL volumetric flask, dissolve in methanol up to the mark to obtain a reference solution of known concentration. Inject 5 μL into the HPLC, detect peak area at 254 nm wavelength. Prepare supersaturated aqueous solution of the sample, filter and inject 5 μL into the HPLC, detect peak area at 254 nm wavelength. The solubility of the compound in water […] is calculated according to the following formula: CS = CA × AB/AA (CA represents the concentration of the reference solution, AA represents the peak area of the reference solution, and AB represents the saturated peak area of the sample).

[11] = test system: TntarO::vraXpro-lux (S.aureus JE2 tarO mutant); assay: vraXpro-lux induction and growth of tarO mutant (target verification); type: cell-based, Staphylococcus aureus; details: different concentrations
Experimental: Second, the vraXpro-lux induction and growth inhibition experiment were conducted using a tarO mutant, as we assumed that a compound with other targets may still change the growth characteristic and the vraXpro-lux expression pattern of the mutant, whereas a TarO inhibitor would not, as its target is absent in the mutant.
Generally, JE2::vraXpro-lux and its isogenic ^TntarO::vraXpro-lux reporter strains were used for preliminary screening and cellular-based target verification. JE2::vraXpro-lux was obtained by transduction of the vraXpro-lux fusions from RN4220 strain to JE2, a plasmid-cured derivative of the community-associated MRSA strain USA300 LAC. ^TntarO::vraXpro-lux was further obtained by transposon insertion mutation of the tarO gene using a mariner-based transposon in JE2 reporter strain[41]. […] Then, 200 μL aliquot of the samples were distributed to a 96-well black-wall clear-bottom plate (Costar, Corning Incorporated), and 45 μL saxoline was added to each well to prevent the evaporation of the medium. vraXpro-lux expression level and the growth curve were measured using a Cytation 1 Multi-Mode Microplate Reader (Biotek) at different time points as indicated.

[12] = Capan-1 cells (human pancreatic cancer cell line), Capan-1, 72 h
[13] = HCT-116 cells (human colon cancer cell line), HCT-116, 72 h
[14] = NCI-H1373 cells (human lung adenocarcinoma cell line), NCI-H1373, 72 h
[15] = at maximum sensitization concentration
[16] = at minimum sensitization concentration
[17] = oxacillin with TarO inhibitor at maximum sensitization concentration
[18] = oxacillin with TarO inhibitor at minimum sensitization concentration
[19] = imipenem with TarO inhibitor at maximum sensitization concentration
[20] = imipenem with TarO inhibitor at minimum sensitization concentration

Row | SMILES | MIC (USA400 MW2 [1]) | IC50 at 72 h [2, 12] | IC50 at 72 h [2, 13] | IC50 at 72 h [2, 14] | MIC (HS663 [3]) | FICI (USA400 MW2 [4]; [15]) | Sensitization fold (USA400 MW2 [4]; [15]) | Sensitization fold (USA400 MW2 [4]; [16]) | Maximum sensitization concentration (USA400 MW2 [4]) | Minimum sensitization concentration (USA400 MW2 [4]) | MIC of β-lactam, combined (USA400 MW2 [4]; [17]) | MIC of β-lactam, combined (USA400 MW2 [4]; [18]) | FICI (USA300 LAC [5]; [15]) | Sensitization fold (USA300 LAC [5]; [15]) | FICI (USA300 LAC [5]; [16]) | Sensitization fold (USA300 LAC [5]; [16]) | Minimum sensitization concentration (USA300 LAC [5]) | MIC (USA300 LAC [8]) | IC50 (TarO) | FICI (HS663 [9]; [15]) | also measured
1 | COc1cc(C(F)(F)F)cc([C@H]2OC(=O)N(C(=O)CCn3ccc(=O)c4cccnc43)[C@H]2C)n1 [Compound 18b] | > 256 µg/mL | > 20 µM | > 20 µM | > 20 µM | > 256 µg/mL | <0.16 | 32 | 2 | 32 µg/mL | 0.06 µg/mL | 0.5 µg/mL | 8 µg/mL | <0.19 | 16 | <0.26 | 4 | 0.25 µg/mL | > 256 µg/mL | 12.3 µM | <0.08 | Clint In Vitro [6]: 1267 mL/min/gprot; Comments (metabolic stability) [6]: poor; half-life at 0.1 μM [6]: 1.66 min; concentration (as low as) significantly reducing biofilm formation ([7]; USA300 LAC, 24 h static culture): 8 µg/mL; Sensitization fold (HS663 [9]; [15]): 16; FICI (HS663 [9]; [16]): <0.51; Sensitization fold (HS663 [9]; [16]): 2; Maximum sensitization concentration (HS663 [9]): 2 µg/mL; Minimum sensitization concentration (HS663 [9]): 0.12 µg/mL; MIC of β-lactam, combined (HS663 [9]; [19]): 4 µg/mL; MIC of β-lactam, combined (HS663 [9]; [20]): 32 µg/mL
2 | C[C@H]1[C@@H](c2cc(C(F)(F)F)cc(C(F)(F)F)c2)OC(=O)N1C(=O)Cc1cccc2ccccc12 [Tarocin A, reference compound] | > 256 µg/mL | > 20 µM | > 20 µM | > 20 µM | > 256 µg/mL | <0.07 | 16 | 2 | 0.5 µg/mL | 0.06 µg/mL | 1 µg/mL | 8 µg/mL | <0.26 | 4 | <0.51 | 2 | 0.06 µg/mL | > 256 µg/mL | 9.7 µM | <0.14 | water solubility [10]: almost insoluble in pure water; FICI (USA400 MW2 [4]; [16]): <0.51; vraXpro-lux expression pattern and growth characteristics of the tarO mutant [11]: neither Tarocin A nor 18a further changed the vraXpro-lux expression pattern as well as the growth characteristics of the mutant; static biofilm formation ([7]; USA300 LAC, tested concentration range 0.03 to 32 μg/mL): did not reduce static biofilm formation; induction of vraXpro-lux expression (TarO; MRSA USA300 LAC strain, exponential growth phase): concentration-dependent manner; bacterial growth density (OD600) (TarO; post-exponential growth phase): effectively reduced the bacterial growth density; Sensitization fold (HS663 [9]; [15]): 8; FICI (HS663 [9]; [16]): <0.51; Sensitization fold (HS663 [9]; [16]): 2; Maximum sensitization concentration (HS663 [9]): 2 µg/mL; Minimum sensitization concentration (HS663 [9]): 0.25 µg/mL; MIC of β-lactam, combined (HS663 [9]; [19]): 8 µg/mL; MIC of β-lactam, combined (HS663 [9]; [20]): 32 µg/mL
3 | C[C@H]1[C@@H](c2cc(C(F)(F)F)cc(C(F)(F)F)c2)OC(=O)N1C(=O)CCn1ccc(=O)c2ccccc21 [Compound 17a] |  |  |  |  |  |  |  |  |  |  |  |  | < 0.13 | 1024 | < 0.15 | 8 | 4 µg/mL |  | 4.08 µM |  | 
4 | C[C@H]1[C@@H](c2cc(C(F)(F)F)cc(C(F)(F)F)c2)OC(=O)N1C(=O)CCN1CCCc2ccccc21 [Compound 10] | > 256 µg/mL | > 20 µM | > 20 µM | > 20 µM | > 256 µg/mL | <0.07 | 16 | 8 | 0.12 µg/mL | 0.03 µg/mL | 1 µg/mL | 2 µg/mL | <0.07 | 16 | <0.13 | 8 | 0.03 µg/mL | > 256 µg/mL | 0.14 µM | <0.02 | FICI (USA400 MW2 [4]; [16]): <0.13; Clint In Vitro [6]: 1779 mL/min/gprot; Comments (metabolic stability) [6]: poor; half-life at 0.1 μM [6]: 1.18 min; inhibition of biofilm formation ([7]; 0.125 μg/mL): near a half; inhibition at 0.5 µg/mL ([7]; Staphylococcus aureus, USA300, read-out: inhibition of biofilm formation): > 90%; Sensitization fold (HS663 [9]; [15]): 64; FICI (HS663 [9]; [16]): <0.13; Sensitization fold (HS663 [9]; [16]): 8; Maximum sensitization concentration (HS663 [9]): 0.25 µg/mL; Minimum sensitization concentration (HS663 [9]): 0.03 µg/mL; MIC of β-lactam, combined (HS663 [9]; [19]): 1 µg/mL; MIC of β-lactam, combined (HS663 [9]; [20]): 8 µg/mL
